Results from patent publication US6492329B1, “Cytokine and hemopoietic factor endogenous production enhancer and methods of use thereof” (Novelos Therapeutics, Inc., priority 1995, dated 2002).

Experiments:
leukemia P388 cells [1] = assay: Leukemia P388 in mice: serum cytokines, ascitic fluid, survival (Example 5); conditions: for Accumulation of ascitic fluid (weight gain) / Concentration in serum: IFNα / Concentration in serum: IL-1 / Concentration in serum: IL-2 / Concentration in serum: IL-6 / Concentration in serum: TNFα: P388 mice
Experimental: (§6) An influence of 7 day course of test article daily administration was studied in respect of variations of serum cytokine levels (IL-1, IL-2, IL-6, IFNα, TNF). In parallel, the tumor progression was estimated using the two integral indices: pace of mouse weight gain due to accumulation of ascitic fluid, and by animal mean survival time after inoculation.
(§7) The study was carried out on DBA/2 mice weighing 18-21 g. First, tumor cell passage was performed using 6 animals for each cell line. For this, cells kept at the temperature of the liquid nitrogen were de-frozen and adjusted to the concentration of 5×10^6 cells/mL by sterile Hanks' solution. Then, 6 mice were intraperitoneally inoculated with 0.2 mL of each line cellular suspension.
(§8) Ascitic fluid was collected 6 days after the inoculation with L1210 cells and 8 days after the inoculation with P388 ones. Thus obtained, the samples of passaged tumor cells were used for the main experiments. The fluid liquid was dissolved by sterile Hanks' solution so that cell concentration be 5×10^6 cells/mL for P388 cells and 5×10^5 cells/mL for L1210 cells.
(§9) Nine groups of animals with no less than 15 mice each were formed for experiments with either tumor cell line. Mice were inoculated with 0.2 mL of resultant cell suspensions per mouse (10^6 P388 cells/mouse, and 10^5 L1210 cells/mouse). 24 hours after the tumor cells inoculation. animals were given the first injections of the test articles or vehicles. The test article injections were made daily till the 14th day of the experiment or until the animal's death. The volume of solutions injected comprised 0.01 mL/g body weight.
(§10) #1—intact animals receiving imitation of tumor cell inoculation (injection of normal saline) which further were treated with normal saline throughout the entire experiment;
(§11) #2—control animals, inoculated with tumor cells, which further were treated with test article vehicle (normal saline);

normal human lymphocytes = assay: Proliferation/apoptosis of normal human lymphocytes (cell number per well, flow cytofluorometry); format: cell-based
[2] = tested on: e-ras cell line (REF transformed with E1A and ras-oncogene); assay: Number of clones of e-ras cells throughout 72-hr incubation; format: cell-based, rat
Experimental: (§1) To this end, these substances had been incubated for 72 hours with cells of rat embrional fibroblasts (REF) and the same cells, transformed with adenoviral E1A gene in complementation with ras-oncogene (e-ras cell line). Subsequent evaluation of the cellularity of experimental samples was carried out by counting the quantity of cell per milliliter (for REF cell line) or clones in dish (for e-ras cell line).
(§2) Cells were cultivated on DMEM medium supplemented with 10% fetal calf serum and […] gentamicin. Cultivation was carried out in Petri dishes.
(§3) E-ras cells were seeded at a cell density of 300 cells per 5 cm dish. 7 days after growth of e-ras cells had been started the quantity of clones was evaluated and the test articles were added into the dishes.
(§4) For the test-system for estimation of apoptosis regulation UV-induced cell death was triggered in a dose of 4 Dj. Test articles were added immediately after irradiation. Then, the quantity of cell per milliliter (for REF cell line) or clones in dish (for e-ras cell line) were monitored every 24 hours. For determination of DNA-fragmentation the electrophoresis in agarose gel was used at standard settings.

[3] = tested on: rat embrional fibroblasts (REF) after UV-irradiation; assay: Number of REF cells after UV-irradiation; format: cell-based
Experimental: as §1, §2
(§5) REF cells was cultivated with initial density of 800 000 cell per mL, evaluation of the cellularity was performed at 0, 24, 48 and 72 hours of incubation with the test articles.
as §4

[4] = tested on: rat embrional fibroblasts (REF); assay: Number of REF cells throughout 72-hr incubation; format: cell-based
Experimental: as §1, §2, §5, §4

[5] = tested on: Erlich adenocarcinoma cells; assay: Erlich adenocarcinoma in mice: ascitic fluid and survival (Example 14); conditions: for Accumulation of ascitic (weight gain, %): Erlich adenocarcinoma
leukemia L1210 cells [6] = assay: Leukemia L1210 in mice: ascitic fluid and survival (Example 14); conditions: for Accumulation of ascitic (weight gain, %): leukemia L1210
Experimental: (§12) An influence of 7 day course of test article daily administration was studied in respect of tumor progression, which was estimated using the two integral indices: pace of mouse weight gain due to accumulation of ascitic fluid, and by animal mean survival time after inoculation.
(§13) The study was carried out on DBA/2 mice weighing 18-21 g. First, tumor cell passage was performed using 6 animals for each cell line. For this, cells kept at the temperature of the liquid nitrogen were de-frozen and adjusted to the concentration of 5×10^6 cells/mL by sterile Hanks' solution. Then, 6 mice were intra peritoneally inoculated with 0.2 mL of each line cellular suspension.
(§14) Ascitic fluid was collected 6 days after the inoculation with L1210 cells, 8 days after the inoculation with P388 ones and 18 days after inoculation with Erlich adenocarcinoma cells. Thus obtained, the samples of passaged tumor cells were used for the main experiments. The fluid liquid was dissolved by sterile Hanks' solution so that cell concentration be 5×10^6 cells/mL for P388 cells and Erlich adenocarcinoma cells, 5×10^5 cells/mL for L1210 cells.
(§15) Eleven groups of animals with no less than 15 mice each were formed for experiments with either tumor cell line. Mice were inoculated with 0.2 mL of resultant cell suspensions per mouse (10^6 P388 and Erlich adenocarcinoma cells/mouse, and 10^5 L1210 cells/mouse). 24 hours after the tumor cells inoculation, animals were given the first injections of the test articles or vehicles. The test article injections were made daily till the 14th day of the experiment or till the animal death. The volume of solutions injected comprised 0.01 mL/g body weight.
as §10, §11

leukemia L1210 cells [7] = assay: Leukemia L1210 in mice: serum cytokines, ascitic fluid, survival (Example 5); conditions: for Accumulation of ascitic fluid (weight gain) / Concentration in serum: IFNα / Concentration in serum: IL-1 / Concentration in serum: IL-2 / Concentration in serum: IL-6 / Concentration in serum: TNFα: L1210 mice
Experimental: as §6, §7, §8, §9, §10, §11

leukemia P388 cells [8] = assay: Leukemia P388 in mice: ascitic fluid and survival (Example 14); conditions: for Accumulation of ascitic (weight gain, %): leukemia P388
Experimental: as §12, §13, §14, §15, §10, §11

[9] = tested on: e-ras cells after UV-irradiation; assay: Number of clones of e-ras cells after UV-irradiation; format: cell-based, rat
Experimental: as §1, §2, §3, §4

HL-60 cells = assay: Proliferation/apoptosis of HL-60 tumor cells (cell number per well, flow cytofluorometry)
Experimental: Subsequent evaluation of the cell cycle parameters was carried out by the flow cytofluorometry technique.
A mononuclear fraction of blood leukocytes were obtained by centrifugation in gradient of fikoll-metrizoat (Histopaque, Sigma). […] Cell viability was estimated by the Trypan blue exclusion method, then the cell suspension was placed into wells of 96-well microtiter plates—200,000 cells per well. […] Cultivation was carried out in closed flasks, the medium volume was 12 mL, it was changed every four days by centrifugation. The nature of the cells growth was suspensive. […] 50 μL of each test solution were added to one or the other cell culture and thereafter cells were cultivated for 24-96 hours. Then, they were tested by the flow cytofluorometry to estimate DNA content in the cell nuclei. In case of apoptosis-like cellular death, the portion of cell nuclei with normal content of DNA became reduced, while the portion of cell nuclei containing abnormally small DNA quantity became larger.
The analysis procedure was the following: after incubation completion, cells were centrifuged and transferred to a standard phosphate isotonic buffer pH 7.4, containing RNA-ase A (20 μg/mL), ethidium bromide (fluorometric indicator for double stranded nucleic acid. 10 μg/mL) and MgCl2 (5 mM). After the cells were disintegrated by nonionic detergent Triton X-100 (final concentration 0.1%). The suspension of cell nuclei thus obtained was analyzed by flow cytofluorometry with an argon laser as a source of light (wave length 488 nm). The red fluorescence due to DNA bound ethidium bromide was taken to be the measure of DNA content in the cell nuclei.

SMILES: O=c1[nH]cnc2c1ncn2[C@@H]1O[C@H](CO)[C@@H](O)[C@H]1O [0.1% inosine, hypoxanthine-9-D-ribofuranoside]
- Accumulation of ascitic fluid (weight gain) (leukemia P388 cells [1]; 0 injections): 0.58 ± 0.13%
- Concentration in serum: IFNα (leukemia P388 cells [1]; 0 injections): 81.4 ± 6.13 pg/mL
- Concentration in serum: IL-1 (leukemia P388 cells [1]; 0 injections): 36.7 ± 5.12 pg/mL
- Concentration in serum: IL-2 (leukemia P388 cells [1]; 0 injections): 16.50 ± 1.09 pg/mL
- Concentration in serum: IL-6 (leukemia P388 cells [1]; 0 injections): 115.0 ± 12.5 pg/mL
- Concentration in serum: TNFα (leukemia P388 cells [1]; 0 injections): 122.0 ± 10.0 pg/mL
- Accumulation of ascitic fluid (weight gain) (leukemia P388 cells [1]; 3 daily injections): 6.8 ± 0.8%
- Concentration in serum: IFNα (leukemia P388 cells [1]; 3 daily injections): 105. ± 11.3 pg/mL
- Concentration in serum: IL-1 (leukemia P388 cells [1]; 3 daily injections): 48.2 ± 7.13 pg/mL
- Concentration in serum: IL-2 (leukemia P388 cells [1]; 3 daily injections): 20.19 ± 1.54 pg/mL
- Concentration in serum: IL-6 (leukemia P388 cells [1]; 3 daily injections): 90.0 ± 7.11 pg/mL
- Concentration in serum: TNFα (leukemia P388 cells [1]; 3 daily injections): 96.5 ± 8.7 pg/mL
- Accumulation of ascitic fluid (weight gain) (leukemia P388 cells [1]; 7 daily injections): 25.0 ± 2.22%
- Concentration in serum: IFNα (leukemia P388 cells [1]; 7 daily injections): 184. ± 16.1 pg/mL
- Concentration in serum: IL-1 (leukemia P388 cells [1]; 7 daily injections): 31.0 ± 5.12 pg/mL
- Concentration in serum: IL-2 (leukemia P388 cells [1]; 7 daily injections): 13.40 ± 1.68 pg/mL
- Concentration in serum: IL-6 (leukemia P388 cells [1]; 7 daily injections): 129.0 ± 10.4 pg/mL
- Concentration in serum: TNFα (leukemia P388 cells [1]; 7 daily injections): 144.8 ± 12.9 pg/mL
- Mean survival time (leukemia P388 cells [1]; mice inoculated with leukemia P388 cells, daily injections till day 14 or death): 9.8 ± 0.21
- number of normal lymphocytes per well (normal human lymphocytes; 24 hours incubation): 26 ± 4 × 10^4 cells
- number of normal lymphocytes per well (normal human lymphocytes; 48 hours incubation): 78 ± 7 × 10^4 cells
- number of normal lymphocytes per well (normal human lymphocytes; 72 hours incubation): 141 ± 12 × 10^4 cells
- number of normal lymphocytes per well (normal human lymphocytes; 96 hours incubation): 216 ± 16 × 10^4 cells
- number of clones of e-ras cells (M ± m) ([2]; 0 hours of incubation): 292 ± 11
- number of clones of e-ras cells (M ± m) ([2]; 24 hours of incubation): 290 ± 8
- number of clones of e-ras cells (M ± m) ([2]; 48 hours of incubation): 269 ± 8
- number of clones of e-ras cells (M ± m) ([2]; 72 hours of incubation): 243 ± 8
- number of REF cells after UV-irradiation (M ± m) ([3]; 0 hours): 811 ± 10 × 10^3 cells
- number of REF cells after UV-irradiation (M ± m) ([3]; 24 hours): 426 ± 24 × 10^3 cells
- number of REF cells after UV-irradiation (M ± m) ([3]; 48 hours): 262 ± 22 × 10^3 cells
- number of REF cells after UV-irradiation (M ± m) ([3]; 72 hours): 234 ± 28 × 10^3 cells
- number of REF cells (M ± m) ([4]; 0 hours of incubation): 811 ± 10 × 10^3 cells
- number of REF cells (M ± m) ([4]; 24 hours of incubation): 1426 ± 24 × 10^3 cells
- number of REF cells (M ± m) ([4]; 48 hours of incubation): 2642 ± 25 × 10^3 cells
- number of REF cells (M ± m) ([4]; 72 hours of incubation): 5034 ± 128 × 10^3 cells
- Accumulation of ascitic (weight gain, %) ([5]; number of injection 0): 0.8 ± 0.2%
- Accumulation of ascitic (weight gain, %) ([5]; number of injection 3): 11.9 ± 0.2%
- Accumulation of ascitic (weight gain, %) ([5]; number of injection 7): 26.8 ± 2.1%
- Mean survival time ([5]; mice inoculated with Erlich adenocarcinoma cells): 10.1 ± 0.6
- Accumulation of ascitic (weight gain, %) (leukemia L1210 cells [6]; number of injection 0): 0.56 ± 0.2%
- Accumulation of ascitic (weight gain, %) (leukemia L1210 cells [6]; number of injection 3): 7.9 ± 0.4%
- Accumulation of ascitic (weight gain, %) (leukemia L1210 cells [6]; number of injection 7): 26.6 ± 2.4%
- Mean survival time (leukemia L1210 cells [6]; mice inoculated with leukemia L1210 cells): 9.8 ± 0.6
- Accumulation of ascitic fluid (weight gain) (leukemia L1210 cells [7]; 0 injections): 0.61%
- Concentration in serum: IFNα (leukemia L1210 cells [7]; 0 injections): 117.3 pg/mL
- Concentration in serum: IL-1 (leukemia L1210 cells [7]; 0 injections): 41.0 pg/mL
- Concentration in serum: IL-2 (leukemia L1210 cells [7]; 0 injections): 17.80 pg/mL
- Concentration in serum: IL-6 (leukemia L1210 cells [7]; 0 injections): 108. pg/mL
- Concentration in serum: TNFα (leukemia L1210 cells [7]; 0 injections): 104.3 pg/mL
- Accumulation of ascitic fluid (weight gain) (leukemia L1210 cells [7]; 3 daily injections): 7.02%
- Concentration in serum: IFNα (leukemia L1210 cells [7]; 3 daily injections): 160.0 pg/mL
- Concentration in serum: IL-1 (leukemia L1210 cells [7]; 3 daily injections): 55.6 pg/mL
- Concentration in serum: IL-2 (leukemia L1210 cells [7]; 3 daily injections): 22.3 pg/mL
- Concentration in serum: IL-6 (leukemia L1210 cells [7]; 3 daily injections): 91.0 pg/mL
- Concentration in serum: TNFα (leukemia L1210 cells [7]; 3 daily injections): 130.0 pg/mL
- Accumulation of ascitic fluid (weight gain) (leukemia L1210 cells [7]; 7 daily injections): 26.30%
- Concentration in serum: IFNα (leukemia L1210 cells [7]; 7 daily injections): 205. pg/mL
- Concentration in serum: IL-1 (leukemia L1210 cells [7]; 7 daily injections): 36.40 pg/mL
- Concentration in serum: IL-2 (leukemia L1210 cells [7]; 7 daily injections): 14.6 pg/mL
- Concentration in serum: IL-6 (leukemia L1210 cells [7]; 7 daily injections): 119. pg/mL
- Concentration in serum: TNFα (leukemia L1210 cells [7]; 7 daily injections): 157.0 pg/mL
- Mean survival time (leukemia L1210 cells [7]; mice inoculated with leukemia L1210 cells, daily injections till day 14 or death): 9.61 ± 0.18
- Accumulation of ascitic (weight gain, %) (leukemia P388 cells [8]; number of injection 0): 0.5 ± 0.2%
- Accumulation of ascitic (weight gain, %) (leukemia P388 cells [8]; number of injection 3): 3.9 ± 0.4%
- Accumulation of ascitic (weight gain, %) (leukemia P388 cells [8]; number of injection 7): 16.6 ± 2.6%
- Mean survival time (leukemia P388 cells [8]; mice inoculated with leukemia P388 cells): 21.8 ± 0.6
- number of clones of e-ras cells after UV-irradiation (M ± m) ([9]; 0 hours): 292 ± 11
- number of clones of e-ras cells after UV-irradiation (M ± m) ([9]; 24 hours): 190 ± 8
- number of clones of e-ras cells after UV-irradiation (M ± m) ([9]; 48 hours): 129 ± 8
- number of clones of e-ras cells after UV-irradiation (M ± m) ([9]; 72 hours): 93 ± 8
- number of HL-60 cells per well (HL-60 cells; 24 hours incubation): 96 ± 8 × 10^4 cells
- number of HL-60 cells per well (HL-60 cells; 48 hours incubation): 152 ± 8 × 10^4 cells
- number of HL-60 cells per well (HL-60 cells; 72 hours incubation): 312 ± 21 × 10^4 cells
- number of HL-60 cells per well (HL-60 cells; 96 hours incubation): 527 ± 18 × 10^4 cells
